The source made the active and inactive calls. The calls are words filed in the database; no cut-off is given here.
Assays:
Assay type in all cases: functional
Rattus norvegicus [1] = species on record: Rattus norvegicus; test: The Magnitude of the peak current produced by 1 uM GABA plus 1 uM compound was normalized with respect to the peak current produced by 1 uM GABA alone on the same cell.
Rattus norvegicus [2] = species on record: Rattus norvegicus; test: The compound gated current reflects the peak current directly gated by 10 uM compound in the absence of GABA compared to the response obtained from the same cell in response to 1 uM GABA alone; No response
Rattus norvegicus [3] = species on record: Rattus norvegicus; test: The compound gated current reflects the peak current directly gated by 10 uM compound in the absence of GABA compared to the response obtained from the same cell in response to 1 uM GABA alone.
Rattus norvegicus [4] = species on record: Rattus norvegicus; test: The Magnitude of the peak current produced by 1 uM GABA plus 1 uM compound was normalized with respect to the peak current produced by 1 uM GABA alone on the same cell. Values are mean+/-SEM

Row | SMILES | Response (Rattus norvegicus [1]) [%] | Effect (Rattus norvegicus [2]) | Effect (Rattus norvegicus [3]) | Response (Rattus norvegicus [4]) [%]
1 | C[C@]12CCC3C[C@@H](CCO)CCC3C1CCC2=O (stereo partly specified) | 197 | inactive |  | 
2 | CC(=O)[C@@H]1CC[C@H]2[C@@H]3CC[C@H]4C[C@H](O)CCC4[C@H]3CC[C@]12C (stereo partly specified) | 521 |  | 144 | 
3 | CC(=O)[C@@H]1CC[C@H]2[C@@H]3CC[C@@H]4C[C@H](O)CCC4[C@H]3CC[C@]12C (stereo partly specified) | 523 |  | 30 | 
4 | CC(=O)C1CCC2C3CC[C@H](CCO)CC3CC[C@]12C (stereo partly specified) | 213 |  | 43 | 
5 | C[C@]12CC[C@@H]3C4CC[C@@H](O)C[C@@H]4CC[C@H]3[C@@H]1CC[C@H]2C#N (stereo partly specified) | 514 |  | 166 | 
6 | C[C@]12CCC3C[C@@H](CCO)CCC3C1CC[C@@H]2C#N (stereo partly specified) | 497 |  | 115 | 
7 | CC(=O)[C@H]1CCC2C3CC[C@H](CCO)CC3CC[C@@]21C (stereo partly specified) | 312 |  | 113 | 
8 | CC(=O)[C@H]1CCC2C3CC[C@@H](CCO)CC3CC[C@@]21C (stereo partly specified) |  | inactive |  | 489
9 | C[C@]12CCC3C[C@@H](CCO)CCC3C1CC[C@@H]2O (stereo partly specified) | 93 | inactive |  | 
10 | CC(C)(C)O[C@H]1CCC2C3CC[C@H](CCO)CC3CC[C@@]21C (stereo partly specified) | 114 | inactive |  | 
11 | C[C@]12CCC3C[C@@H](CCO)CCC3C1CCC2C#N (stereo partly specified) | 104 | inactive |  | 
12 | C[C@]12CCC3C[C@H](CCO)CCC3C1CC[C@@H]2C#N (stereo partly specified) | 346 | inactive |  | 
13 | C[C@]12CC[C@@H]3C4CC[C@@H](O)C[C@H]4CC[C@H]3[C@@H]1CC[C@H]2C#N (stereo partly specified) | 443 |  | 49 | 
